Consider one compound from paper PMC10017155 (Aging and Disease, 2023).

The structures appear in SMILES notation. Entries after “also recorded” stand apart in the source; their conditions may differ. Peptide text beside a SMILES is read from it.

One experiment relates to C. elegans CL2120. The experiment is described as follows: Amyloid load by X-34 staining in C. elegans CL2120. It is filed as in vivo. On the procedure: C. elegans CL2120 (dvIs14 [(pCL12) unc-54::beta 1-42 +(pCL26) mtl-2::GFP]) and C. elegans CL2122 (dvIs15 [(pPD30.38) unc-54(vector) + (pCL26) mtl-2::GFP]) strains were obtained from the Caenorhabditis Genetics Center. The worms were handled according to standard methods without FUDR [18]. E. coli OP50 bacteria were grown overnight in Luria-Bertani broth and 50µl were spread atop NGM or NGMZn plates. NGMZn has 20μM ZnSO4. Seeded plates were incubated at 30°C for ~16 hours and then for 1-2 hours at 15 or 25°C before worms were transferred. Lifespan and paralysis experiments (see below) were performed at 25°C for enhanced expression of Aβ. This temperature is standard when studying the effects of Aβ on C. elegans CL2120 strain [19].
Nematodes were purified from unwanted microflora by the alkaline hypochlorite method, grown to the L4 stage at 15°C on NGM plates with bacterial lawn. […] Further, all contents were transferred to Petri plates with NGM or NGMZn with OP50 and placed in a temperature-controlled incubator at 25°C. Next day, worms were transferred onto similar media with a bacterial substrate and the lifespan was determined at 25°C (Supplementary Tables 3, 4).
Post-hoc analysis was performed with the Tukey test.
Figure 2.

In a further experiment the target is T1, immobilized Aβ42 (Homo sapiens, UniProt P05067).
T1 construct: Aβ42 ([…] […]); purchased Biopeptide Co., LLC (San Diego, CA, USA); host or cells: chemical synthesis
Put plainly: SPR analysis of HAEE binding to immobilized Aβ42. The protocol:
All SPR measurements were carried out at 25°C using an optical biosensor Biacore 8K (GE Healthcare, USA) with CM4 optical chip. Covalent immobilization of the peptide ligands on the surface of the optical chip was performed using the sulfhydryl group of the C-terminal tetragly-cylcysteine tag. Briefly, carboxyl groups on the chip surface were activated by serial injections of mixture of 0.4 M EDC/0.1 M NHS at a flow rate of 10 μL/min for 2 min and a solution of 80 mM PDEA in 100 mM borate buffer (pH 8.5) for 4 min. Solutions of 2 μM peptides in the immobilization buffer (10 mM acetate buffer, pH 4.5) were injected for 2 min at a flow rate of 10 μL/min (three repeats). Unreacted activated groups on the chip were blocked by further injection of a solution containing 50 mM cysteine, 1 M NaCl, 0.1 M sodium acetate (pH 4.3) for 4 min at a flow rate of 5 μL/min. Possible nonspecific analyte binding to the chip surface was evaluated using a free (control) channel of the biosensor exposed to the same treatments as the working channel except peptides. SPR signals were recorded in real time in resonance units (RU; 1 RU corresponds to […]) and were presented in the form of sensorgrams showing time-dependent signal changes. […] The obtained sensorgrams were analyzed with BIAevaluation v.4.1 software.
(In general: In SPR one partner is held on a chip, and binding of the other changes the refractive index at the surface.)

Where [1] appears, read: HAEE 4 mM + isoD7-Aβ42 40 µM, NGMZn, X-34.

T1 sequence (P05067 672-713): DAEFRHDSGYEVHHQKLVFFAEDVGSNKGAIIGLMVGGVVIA

Take `CC(=O)N[C@@H](Cc1c[nH]cn1)C(=O)N[C@@H](C)C(=O)N[C@@H](CCC(=O)O)C(=O)N[C@@H](CCC(=O)O)C(N)=O` [HAEE, Ac-HAEE-NH2] (Ac-HAEE-NH2): in the experiment with C. elegans CL2120 (setting [1]), the “Effect of HAEE on isoD7-Aβ42/Zn2+-induced amyloidosis” value was “completely negated; also recorded: abrogates this pathological process; also recorded: fails to induce amyloidosis”; the “Number of plaques and plaque area” value is given as “reduced back to the untreated group values”. Besides, in the experiment with C. elegans CL2120 (HAEE alone), the “Effect on endogenous amyloidosis in untreated transgenic C. elegans” value was “did not affect the endogenous amyloidosis”. The Kd (usually the constant that tells how readily two partners part at equilibrium) on immobilized Aβ42 stood at 4.1 ± 0.3 µM. Further, the “Interaction with immobilized Aβ42 in the absence of Zn2+” value at immobilized Aβ42 (SPR, 10 mM HEPES, pH 6.8, no Zn2+, 25°C) is reported as “no interaction”.
